Assays:
Assay type in all cases: ADME
[1] = target: UDP-glucuronosyltransferase 2B28 (Homo sapiens, UniProt Q9BY64); assay: Substrate of human UDP-glucuronosyltransferase UGT2B28
Sulfotransferase 2A1 = target: T1, Sulfotransferase 2A1 (Homo sapiens, UniProt Q06520); assay: Major substrate of human cytosolic sulfotransferase SULT2A1
T1 sequence (Q06520 whole entry): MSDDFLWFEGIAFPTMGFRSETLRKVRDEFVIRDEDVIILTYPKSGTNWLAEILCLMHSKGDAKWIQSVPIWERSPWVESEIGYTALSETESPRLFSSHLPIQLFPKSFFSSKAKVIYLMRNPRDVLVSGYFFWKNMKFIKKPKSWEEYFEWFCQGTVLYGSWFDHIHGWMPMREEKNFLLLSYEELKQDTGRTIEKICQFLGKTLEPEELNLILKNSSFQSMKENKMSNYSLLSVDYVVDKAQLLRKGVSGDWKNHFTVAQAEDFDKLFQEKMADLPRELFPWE

[2] = target: UDP-glucuronosyltransferase 2A1 (Homo sapiens, UniProt P0DTE4); assay: Substrate of human UDP-glucuronosyltransferase UGT2A1
Sequence of UDP-glucuronosyltransferase 2A1 (P0DTE4 whole entry): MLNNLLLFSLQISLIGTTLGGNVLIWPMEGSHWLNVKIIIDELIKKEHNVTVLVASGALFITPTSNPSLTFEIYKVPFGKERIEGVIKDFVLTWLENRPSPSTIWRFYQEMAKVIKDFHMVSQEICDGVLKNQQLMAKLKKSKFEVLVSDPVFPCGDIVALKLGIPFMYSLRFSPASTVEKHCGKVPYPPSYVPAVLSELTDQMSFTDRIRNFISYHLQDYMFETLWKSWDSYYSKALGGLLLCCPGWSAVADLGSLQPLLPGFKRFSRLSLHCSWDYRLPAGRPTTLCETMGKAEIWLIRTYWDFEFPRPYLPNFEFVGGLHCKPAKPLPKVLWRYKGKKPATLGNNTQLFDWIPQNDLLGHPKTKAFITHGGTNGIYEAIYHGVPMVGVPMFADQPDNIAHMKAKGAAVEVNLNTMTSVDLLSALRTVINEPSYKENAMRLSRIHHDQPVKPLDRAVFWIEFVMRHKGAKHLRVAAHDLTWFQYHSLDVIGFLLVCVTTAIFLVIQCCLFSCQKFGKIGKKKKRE

[3] = target: T2, UDP-glucuronosyltransferase 2B7 (Homo sapiens, UniProt P16662); assay: Substrate of human UDP-glucuronosyltransferase UGT2B7
T2 sequence (P16662 whole entry): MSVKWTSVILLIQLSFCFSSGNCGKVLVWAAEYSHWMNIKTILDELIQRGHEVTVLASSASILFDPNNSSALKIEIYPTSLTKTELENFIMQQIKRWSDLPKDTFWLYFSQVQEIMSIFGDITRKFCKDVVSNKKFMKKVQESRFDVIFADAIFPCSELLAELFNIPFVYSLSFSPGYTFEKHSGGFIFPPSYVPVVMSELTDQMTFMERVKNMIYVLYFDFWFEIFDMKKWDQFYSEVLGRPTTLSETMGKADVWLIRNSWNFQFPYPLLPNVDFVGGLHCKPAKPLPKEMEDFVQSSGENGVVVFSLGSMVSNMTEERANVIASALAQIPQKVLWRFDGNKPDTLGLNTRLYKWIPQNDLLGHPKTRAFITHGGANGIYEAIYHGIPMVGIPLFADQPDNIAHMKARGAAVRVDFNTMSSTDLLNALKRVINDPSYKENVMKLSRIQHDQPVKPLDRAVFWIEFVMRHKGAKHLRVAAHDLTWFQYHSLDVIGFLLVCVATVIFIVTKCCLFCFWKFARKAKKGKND

[4] = target: T3, UDP-glucuronosyltransferase 1A3 (Homo sapiens, UniProt P35503); assay: Substrate of human UDP-glucuronosyltransferase UGT1A3
T3 sequence (P35503 whole entry): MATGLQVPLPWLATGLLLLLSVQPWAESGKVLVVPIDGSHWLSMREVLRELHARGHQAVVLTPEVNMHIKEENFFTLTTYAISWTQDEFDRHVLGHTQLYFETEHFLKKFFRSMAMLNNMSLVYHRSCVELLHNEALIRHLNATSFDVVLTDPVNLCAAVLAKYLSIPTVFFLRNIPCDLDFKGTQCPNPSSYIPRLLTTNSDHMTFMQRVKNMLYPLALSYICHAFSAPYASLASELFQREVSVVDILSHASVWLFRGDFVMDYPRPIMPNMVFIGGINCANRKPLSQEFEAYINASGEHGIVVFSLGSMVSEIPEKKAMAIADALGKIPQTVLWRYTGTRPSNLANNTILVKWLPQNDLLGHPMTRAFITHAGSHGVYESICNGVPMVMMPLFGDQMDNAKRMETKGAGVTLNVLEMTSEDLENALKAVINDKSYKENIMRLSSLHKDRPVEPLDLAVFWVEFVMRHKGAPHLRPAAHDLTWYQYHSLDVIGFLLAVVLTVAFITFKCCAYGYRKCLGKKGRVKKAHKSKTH

[5] = target: T4, UDP-glucuronosyltransferase 1A8 (Homo sapiens, UniProt Q9HAW9); assay: Substrate of human UDP-glucuronosyltransferase UGT1A8
T4 sequence (Q9HAW9 whole entry): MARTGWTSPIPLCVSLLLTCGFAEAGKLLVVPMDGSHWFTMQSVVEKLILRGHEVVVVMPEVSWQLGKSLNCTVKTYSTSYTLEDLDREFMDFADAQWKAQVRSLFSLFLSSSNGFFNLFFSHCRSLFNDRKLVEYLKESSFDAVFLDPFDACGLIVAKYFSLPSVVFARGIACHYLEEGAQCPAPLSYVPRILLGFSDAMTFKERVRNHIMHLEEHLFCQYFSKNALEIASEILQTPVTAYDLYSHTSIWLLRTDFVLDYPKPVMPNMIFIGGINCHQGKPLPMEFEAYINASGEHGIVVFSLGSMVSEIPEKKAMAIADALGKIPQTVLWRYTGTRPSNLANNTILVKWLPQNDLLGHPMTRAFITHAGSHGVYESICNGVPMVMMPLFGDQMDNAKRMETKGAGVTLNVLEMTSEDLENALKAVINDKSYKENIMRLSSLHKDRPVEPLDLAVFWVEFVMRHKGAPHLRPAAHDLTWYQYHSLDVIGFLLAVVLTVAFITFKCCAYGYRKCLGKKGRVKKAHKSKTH

Sulfotransferase 1E1 = target: T5, Sulfotransferase 1E1 (Homo sapiens, UniProt P49888); assay: Major substrate of human cytosolic sulfotransferase SULT1E1
T5 sequence (P49888 whole entry): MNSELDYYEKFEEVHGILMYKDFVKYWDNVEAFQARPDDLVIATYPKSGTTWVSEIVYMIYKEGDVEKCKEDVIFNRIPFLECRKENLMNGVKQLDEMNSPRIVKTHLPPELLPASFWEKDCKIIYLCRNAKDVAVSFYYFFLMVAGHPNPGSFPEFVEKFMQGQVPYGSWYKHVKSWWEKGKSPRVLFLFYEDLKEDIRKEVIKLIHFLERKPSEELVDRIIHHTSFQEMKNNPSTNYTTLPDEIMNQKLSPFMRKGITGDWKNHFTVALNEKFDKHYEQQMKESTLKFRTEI

Sulfotransferase 1A1 = Sulfotransferase 1A1 (Homo sapiens, UniProt P50225); assay: Major substrate of human cytosolic sulfotransferase SULT1A1
Sequence of Sulfotransferase 1A1 (P50225 whole entry): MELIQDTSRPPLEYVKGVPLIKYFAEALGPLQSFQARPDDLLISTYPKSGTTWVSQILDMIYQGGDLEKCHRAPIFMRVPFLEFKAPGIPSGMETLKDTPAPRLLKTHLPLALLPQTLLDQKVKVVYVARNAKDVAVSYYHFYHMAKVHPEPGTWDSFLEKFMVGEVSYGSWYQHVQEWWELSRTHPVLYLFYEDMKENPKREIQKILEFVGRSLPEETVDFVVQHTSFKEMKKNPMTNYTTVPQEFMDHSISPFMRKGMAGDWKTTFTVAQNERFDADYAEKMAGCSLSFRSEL

[6] = target: Microsomal glutathione S-transferase 2 (Homo sapiens, UniProt Q99735); assay: Substrates for human microsomal glutathione transferase MGST2
Sequence of Microsomal glutathione S-transferase 2 (Q99735 whole entry): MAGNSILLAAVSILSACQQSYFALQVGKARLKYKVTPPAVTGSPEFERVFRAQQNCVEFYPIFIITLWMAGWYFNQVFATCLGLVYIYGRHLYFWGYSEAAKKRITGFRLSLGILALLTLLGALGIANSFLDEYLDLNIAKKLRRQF

[7] = target: Glutathione S-transferase 3, mitochondrial (Homo sapiens, UniProt O14880); assay: Substrates for human microsomal glutathione transferase MGST3
Sequence of Glutathione S-transferase 3, mitochondrial (O14880 whole entry): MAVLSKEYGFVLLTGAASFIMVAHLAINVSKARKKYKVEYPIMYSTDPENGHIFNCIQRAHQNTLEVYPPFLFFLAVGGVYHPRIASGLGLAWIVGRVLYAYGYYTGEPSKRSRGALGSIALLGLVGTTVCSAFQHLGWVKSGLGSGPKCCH

Leukotriene C4 synthase = Leukotriene C4 synthase (Homo sapiens, UniProt Q16873); assay: Substrates for human microsomal glutathione transferase LTC4S
Sequence of Leukotriene C4 synthase (Q16873 whole entry): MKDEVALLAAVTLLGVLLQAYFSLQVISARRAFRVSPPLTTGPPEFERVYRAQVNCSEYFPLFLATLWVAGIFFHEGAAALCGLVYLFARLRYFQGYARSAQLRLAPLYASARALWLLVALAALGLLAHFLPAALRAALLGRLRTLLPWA

[8] = target: T6, UDP-glucuronosyltransferase 2B17 (Homo sapiens, UniProt O75795); assay: Substrate of human UDP-glucuronosyltransferase UGT2B17
T6 sequence (O75795 whole entry): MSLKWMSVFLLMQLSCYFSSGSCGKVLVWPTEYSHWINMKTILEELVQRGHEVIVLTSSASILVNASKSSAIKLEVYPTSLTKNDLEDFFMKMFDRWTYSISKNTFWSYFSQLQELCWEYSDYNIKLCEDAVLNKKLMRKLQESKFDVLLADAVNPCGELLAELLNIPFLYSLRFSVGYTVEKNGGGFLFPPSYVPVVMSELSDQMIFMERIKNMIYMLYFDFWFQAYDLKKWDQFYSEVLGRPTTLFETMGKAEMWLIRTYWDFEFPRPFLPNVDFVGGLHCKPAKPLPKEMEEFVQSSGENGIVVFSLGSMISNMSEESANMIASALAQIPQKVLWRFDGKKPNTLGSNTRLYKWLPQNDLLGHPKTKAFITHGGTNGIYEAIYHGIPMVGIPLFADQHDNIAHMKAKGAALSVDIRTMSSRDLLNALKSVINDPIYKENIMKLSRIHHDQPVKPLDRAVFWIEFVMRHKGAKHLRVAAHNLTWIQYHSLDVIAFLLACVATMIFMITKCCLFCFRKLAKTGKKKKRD

[9] = target: T7, UDP-glucuronosyltransferase 1A9 (Homo sapiens, UniProt O60656); assay: Substrate of human UDP-glucuronosyltransferase UGT1A9
T7 sequence (O60656 whole entry): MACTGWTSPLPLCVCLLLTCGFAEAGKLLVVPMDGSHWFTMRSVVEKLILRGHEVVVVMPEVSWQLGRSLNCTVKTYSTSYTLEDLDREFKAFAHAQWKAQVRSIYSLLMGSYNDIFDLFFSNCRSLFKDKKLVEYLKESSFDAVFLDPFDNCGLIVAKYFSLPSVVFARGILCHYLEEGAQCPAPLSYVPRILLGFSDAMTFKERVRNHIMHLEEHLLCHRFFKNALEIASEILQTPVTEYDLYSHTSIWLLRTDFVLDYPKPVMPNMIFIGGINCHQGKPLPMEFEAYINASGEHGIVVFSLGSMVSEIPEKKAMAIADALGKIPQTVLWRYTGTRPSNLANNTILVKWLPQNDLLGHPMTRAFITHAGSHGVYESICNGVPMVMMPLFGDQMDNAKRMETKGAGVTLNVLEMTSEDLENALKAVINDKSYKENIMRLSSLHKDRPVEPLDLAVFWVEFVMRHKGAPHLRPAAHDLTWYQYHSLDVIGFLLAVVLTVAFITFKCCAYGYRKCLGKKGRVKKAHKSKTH

[10] = target: T8, UDP-glucuronosyltransferase 1A6 (Homo sapiens, UniProt P19224); assay: Substrate of human UDP-glucuronosyltransferase UGT1A6
T8 sequence (P19224 whole entry): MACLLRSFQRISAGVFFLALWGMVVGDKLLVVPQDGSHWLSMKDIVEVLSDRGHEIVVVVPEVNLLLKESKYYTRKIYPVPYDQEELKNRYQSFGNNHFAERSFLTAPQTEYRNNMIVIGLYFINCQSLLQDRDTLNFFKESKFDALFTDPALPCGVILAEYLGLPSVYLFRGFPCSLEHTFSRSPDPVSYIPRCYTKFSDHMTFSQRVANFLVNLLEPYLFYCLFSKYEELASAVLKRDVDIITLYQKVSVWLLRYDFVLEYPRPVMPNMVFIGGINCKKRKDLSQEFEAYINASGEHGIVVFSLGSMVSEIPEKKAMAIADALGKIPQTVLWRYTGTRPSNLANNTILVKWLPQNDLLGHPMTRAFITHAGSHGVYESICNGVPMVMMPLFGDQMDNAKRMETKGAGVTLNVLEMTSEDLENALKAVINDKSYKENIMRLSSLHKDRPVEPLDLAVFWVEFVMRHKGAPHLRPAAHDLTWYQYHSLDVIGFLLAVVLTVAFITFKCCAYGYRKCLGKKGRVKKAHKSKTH

[11] = target: Glutathione S-transferase omega-2 (Homo sapiens, UniProt Q9H4Y5); assay: Substrates for human cytosolic glutathione transferase GSTO2
Sequence of Glutathione S-transferase omega-2 (Q9H4Y5 whole entry): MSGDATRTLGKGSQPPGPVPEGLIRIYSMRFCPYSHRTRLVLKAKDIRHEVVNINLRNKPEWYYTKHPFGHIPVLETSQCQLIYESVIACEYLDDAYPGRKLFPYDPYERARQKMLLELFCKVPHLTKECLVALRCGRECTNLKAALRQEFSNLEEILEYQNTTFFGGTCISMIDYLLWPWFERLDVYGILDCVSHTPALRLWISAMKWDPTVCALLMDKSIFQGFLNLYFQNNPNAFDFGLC

[12] = target: Glutathione S-transferase omega-1 (Homo sapiens, UniProt P78417); assay: Substrates for human cytosolic glutathione transferase GSTO1
Sequence of Glutathione S-transferase omega-1 (P78417 whole entry): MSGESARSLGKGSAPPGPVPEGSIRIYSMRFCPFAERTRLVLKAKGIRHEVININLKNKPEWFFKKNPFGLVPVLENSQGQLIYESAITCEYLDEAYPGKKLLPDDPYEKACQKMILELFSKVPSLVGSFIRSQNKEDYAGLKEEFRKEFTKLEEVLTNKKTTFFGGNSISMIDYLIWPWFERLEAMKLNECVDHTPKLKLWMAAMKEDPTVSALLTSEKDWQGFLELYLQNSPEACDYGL

[13] = target: T9, Microsomal glutathione S-transferase 1 (Homo sapiens, UniProt P10620); assay: Substrates for human microsomal glutathione transferase MGST1
T9 sequence (P10620 whole entry): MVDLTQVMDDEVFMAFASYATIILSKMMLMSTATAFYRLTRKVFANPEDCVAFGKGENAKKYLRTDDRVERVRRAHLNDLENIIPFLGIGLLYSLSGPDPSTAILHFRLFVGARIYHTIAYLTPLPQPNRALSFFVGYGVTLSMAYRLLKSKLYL

[14] = target: Glutathione S-transferase Mu 4 (Homo sapiens, UniProt Q03013); assay: Substrates for human cytosolic glutathione transferase GSTM4
Sequence of Glutathione S-transferase Mu 4 (Q03013 whole entry): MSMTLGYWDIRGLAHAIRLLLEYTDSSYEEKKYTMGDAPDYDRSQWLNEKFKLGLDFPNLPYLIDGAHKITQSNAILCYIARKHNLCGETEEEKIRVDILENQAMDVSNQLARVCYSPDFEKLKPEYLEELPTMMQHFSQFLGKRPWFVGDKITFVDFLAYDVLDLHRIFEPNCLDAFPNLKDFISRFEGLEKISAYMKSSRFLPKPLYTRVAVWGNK

[15] = target: T10, Glutathione S-transferase kappa 1 (Homo sapiens, UniProt Q9Y2Q3); assay: Substrates for human mitochondrial glutathione transferase GSTK1
T10 sequence (Q9Y2Q3 whole entry): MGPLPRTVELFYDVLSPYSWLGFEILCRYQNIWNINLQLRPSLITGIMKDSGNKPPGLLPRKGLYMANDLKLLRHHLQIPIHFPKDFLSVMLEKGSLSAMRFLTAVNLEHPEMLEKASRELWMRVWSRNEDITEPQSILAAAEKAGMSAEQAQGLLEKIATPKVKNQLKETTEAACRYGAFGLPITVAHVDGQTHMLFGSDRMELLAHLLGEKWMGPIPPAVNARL

[16] = target: Glutathione S-transferase Mu 5 (Homo sapiens, UniProt P46439); assay: Substrates for human cytosolic glutathione transferase GSTM5
Sequence of Glutathione S-transferase Mu 5 (P46439 whole entry): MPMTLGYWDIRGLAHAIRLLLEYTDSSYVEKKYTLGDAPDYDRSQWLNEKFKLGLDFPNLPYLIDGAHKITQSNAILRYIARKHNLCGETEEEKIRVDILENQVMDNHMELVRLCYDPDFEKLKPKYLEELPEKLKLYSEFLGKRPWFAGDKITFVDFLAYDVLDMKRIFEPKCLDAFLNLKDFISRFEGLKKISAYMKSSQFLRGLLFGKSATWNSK

Measured: Activity

Sequence of UDP-glucuronosyltransferase 2B28 (Q9BY64 whole entry): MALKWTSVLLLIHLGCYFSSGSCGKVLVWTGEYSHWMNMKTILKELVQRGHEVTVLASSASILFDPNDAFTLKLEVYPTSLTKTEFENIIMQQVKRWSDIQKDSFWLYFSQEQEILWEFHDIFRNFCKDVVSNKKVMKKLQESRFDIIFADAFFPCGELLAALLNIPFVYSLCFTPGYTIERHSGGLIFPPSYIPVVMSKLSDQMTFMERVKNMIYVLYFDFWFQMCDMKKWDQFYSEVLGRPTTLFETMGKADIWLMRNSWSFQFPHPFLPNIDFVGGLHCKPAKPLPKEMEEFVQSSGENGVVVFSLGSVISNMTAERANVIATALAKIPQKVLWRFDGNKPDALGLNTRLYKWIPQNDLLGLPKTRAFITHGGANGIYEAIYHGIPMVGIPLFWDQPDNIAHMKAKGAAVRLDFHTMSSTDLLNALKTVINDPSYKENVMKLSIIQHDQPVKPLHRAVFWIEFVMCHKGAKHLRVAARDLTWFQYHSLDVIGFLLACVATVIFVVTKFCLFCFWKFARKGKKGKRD

C[C@]12CC[C@H]3[C@@H](CCC4=CC(=O)CC[C@@]43C)[C@@H]1CC[C@@H]2O [TESTOSTERONE]
Substrate: [1] | Sulfotransferase 2A1

CCCC(CCC)C(=O)O [VALPROIC ACID]
Substrate: [2] | [3] | [4] | [5]

C[C@]12CC[C@@H]3c4ccc(O)cc4CC[C@H]3[C@@H]1CC[C@@H]2O [ESTRADIOL]
Substrate: [1] | [4] | Sulfotransferase 1E1 | Sulfotransferase 1A1 | Sulfotransferase 2A1

CCCCC/C=C\C\C=C/C=C/C=C/[C@@H]1O[C@H]1CCCC(=O)O [LEUKOTRIENE A4]
Substrate: [6] | [7] | Leukotriene C4 synthase

CC(C)Cc1ccc(C(C)C(=O)O)cc1 (stereo not drawn) [IBUPROFEN]
Substrate: [2] | [3] | [4] | [8] | [9] | [10]

O=C1OC(C(O)CO)C(=O)C1=O (stereo not drawn) [DEHYDROASCORBIC ACID]
Substrate: [11] | [12]

O=[N+]([O-])c1ccc(Cl)c([N+](=O)[O-])c1 [DINITROCHLOROBENZENE]
Substrate: [13] | [14] | [6] | [7] | [15] | [16]

— ChEMBL document CHEMBL1743201, “Casarett and Doull's Toxicology The Basic Science of Poisons, 7th edition” (2008)
